According to ChEMBL document CHEMBL1201862, “PubChem BioAssay data set” (2004):
Active and inactive are the calls of the source.

Key:
Nonstructural protein 1 = Nonstructural protein 1 (Influenza A virus, UniProt Q194T2); assay type: functional, Influenza A virus (A/California/07/2009(H1N1))
Vero = assay: cells; assay type: functional; settings: Chlorocebus sabaeus
H4 = assay: Luminescence Cell-Based Dose Response HTS to Identify Activators of 5'UTR Stem-Loop Driven Prion Protein mRNA Translation in H4 Neuroglioblastoma Cells. [Related pubchem assays: 1829 (Project Summary), 1814 (Primary HTS)]; assay type: functional; settings: Homo sapiens
[1] = Luminescence Cell-Based Dose Confirmation HTS to Identify Activators of 5'UTR Stem-Loop Driven Alpha-Synuclein mRNA Translation in H4 Neuroglioblastoma Cells. [Related pubchem assays: 1829 (Project Summary), 1814 (Primary HTS)]; assay type: functional
[2] = Luminescence Cell-Based Dose Response HTS to Identify Activators of Luciferase Translation or Activity in H4 […] Cells. [Related pubchem assays: 1829 (Project Summary), 1814 (Primary HTS)]; assay type: functional
[3] = target: FAD-linked sulfhydryl oxidase ALR (Homo sapiens, UniProt P55789); assay: inhibitors of human ALR sulfhydryl oxidase, dose response, biochemical, H2O2 detection, luminescence, cherry-pick (AID 493248)
Sequence of FAD-linked sulfhydryl oxidase ALR (P55789 whole entry, the tested form may be a part): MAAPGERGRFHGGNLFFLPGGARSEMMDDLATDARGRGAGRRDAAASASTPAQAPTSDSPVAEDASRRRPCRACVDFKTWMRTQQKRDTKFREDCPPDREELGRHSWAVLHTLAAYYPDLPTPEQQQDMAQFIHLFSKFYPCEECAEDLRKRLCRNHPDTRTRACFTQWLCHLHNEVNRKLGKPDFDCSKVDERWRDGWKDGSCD

[4] = inhibitors of clade B AD8 Env fusion, dose response, cell-based, cherry-pick (AID 652062); assay type: functional;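 also: luciferase signal from cell-cell fusion driven by HIV-1 clade B AD8 Env; potency is for inhibitors of fusion seen as a drop in luminescence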
[5] = inhibitors of HIV Env-driven cell fusion, dose response, cherry-pick (AID 652057); assay type: functional, cell-based
[6] = off-target signal loss in HeLa-CEM21 co-culture – HeLa F-luc CTL cells, cherry-picked, counter-screen for HIV-1 Env fusion inhibitor project, dose response (AID 652040); assay type: functional, cell-based;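 also: potency for signal decrease marking cytotoxic or nonspecific inhibition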
[7] = ZM109 Env clade C HIV-1 fusion inhibitors, dose response, HeLa effector, CEM target cells, luciferase, cherry-pick (AID 652058); assay type: functional, cell-based
[8] = target: T1, Ubiquitin-conjugating enzyme E2 N (Homo sapiens, UniProt P61088); assay type: functional;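 also: Dose-response confirmation in a TR-FRET assay detecting UBC13-driven polyubiquitin chain formation, inhibition measured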
T1 sequence (P61088 whole entry): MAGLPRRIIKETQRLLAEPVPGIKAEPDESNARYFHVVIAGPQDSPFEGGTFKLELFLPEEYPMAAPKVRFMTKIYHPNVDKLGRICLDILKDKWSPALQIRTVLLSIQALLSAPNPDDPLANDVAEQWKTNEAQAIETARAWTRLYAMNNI

[9] = target: T2, Polyadenylate-binding protein 1 (Homo sapiens, UniProt P11940); assay: PABP1 MLLE–PAM2 interaction inhibitors, dose response, miRNA deadenylation inhibitor project, biochemical, fluorescence polarization, Cy5-PAM2 peptide, secondary (AID 602260); assay type: functional; settings: read-out: IC50_Mean
T2 sequence (P11940 whole entry): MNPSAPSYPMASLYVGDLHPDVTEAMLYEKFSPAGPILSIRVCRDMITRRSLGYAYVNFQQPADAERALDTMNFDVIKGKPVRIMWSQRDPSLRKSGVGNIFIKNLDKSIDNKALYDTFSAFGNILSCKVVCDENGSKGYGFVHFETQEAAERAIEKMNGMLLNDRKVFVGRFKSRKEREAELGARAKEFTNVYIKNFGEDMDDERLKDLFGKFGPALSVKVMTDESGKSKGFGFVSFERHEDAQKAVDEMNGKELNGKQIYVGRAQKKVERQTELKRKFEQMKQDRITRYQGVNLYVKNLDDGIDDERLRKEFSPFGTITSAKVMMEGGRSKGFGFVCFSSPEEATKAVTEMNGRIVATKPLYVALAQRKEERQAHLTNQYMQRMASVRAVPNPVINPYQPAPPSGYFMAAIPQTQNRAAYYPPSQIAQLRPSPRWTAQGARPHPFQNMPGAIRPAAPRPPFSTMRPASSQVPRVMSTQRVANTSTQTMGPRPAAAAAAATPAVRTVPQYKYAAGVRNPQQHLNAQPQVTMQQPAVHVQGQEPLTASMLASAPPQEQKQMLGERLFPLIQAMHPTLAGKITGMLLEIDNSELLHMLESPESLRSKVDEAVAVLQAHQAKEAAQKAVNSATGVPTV

Genome polyprotein = Genome polyprotein (dengue virus type 2, UniProt P29990); assay: Dengue-2 NS5 methyltransferase inhibitors, primary screen, biochemical, confirmation dose response (AID 588689); assay type: functional
Sequence of Genome polyprotein (P29990 2492-3391 limits assumed): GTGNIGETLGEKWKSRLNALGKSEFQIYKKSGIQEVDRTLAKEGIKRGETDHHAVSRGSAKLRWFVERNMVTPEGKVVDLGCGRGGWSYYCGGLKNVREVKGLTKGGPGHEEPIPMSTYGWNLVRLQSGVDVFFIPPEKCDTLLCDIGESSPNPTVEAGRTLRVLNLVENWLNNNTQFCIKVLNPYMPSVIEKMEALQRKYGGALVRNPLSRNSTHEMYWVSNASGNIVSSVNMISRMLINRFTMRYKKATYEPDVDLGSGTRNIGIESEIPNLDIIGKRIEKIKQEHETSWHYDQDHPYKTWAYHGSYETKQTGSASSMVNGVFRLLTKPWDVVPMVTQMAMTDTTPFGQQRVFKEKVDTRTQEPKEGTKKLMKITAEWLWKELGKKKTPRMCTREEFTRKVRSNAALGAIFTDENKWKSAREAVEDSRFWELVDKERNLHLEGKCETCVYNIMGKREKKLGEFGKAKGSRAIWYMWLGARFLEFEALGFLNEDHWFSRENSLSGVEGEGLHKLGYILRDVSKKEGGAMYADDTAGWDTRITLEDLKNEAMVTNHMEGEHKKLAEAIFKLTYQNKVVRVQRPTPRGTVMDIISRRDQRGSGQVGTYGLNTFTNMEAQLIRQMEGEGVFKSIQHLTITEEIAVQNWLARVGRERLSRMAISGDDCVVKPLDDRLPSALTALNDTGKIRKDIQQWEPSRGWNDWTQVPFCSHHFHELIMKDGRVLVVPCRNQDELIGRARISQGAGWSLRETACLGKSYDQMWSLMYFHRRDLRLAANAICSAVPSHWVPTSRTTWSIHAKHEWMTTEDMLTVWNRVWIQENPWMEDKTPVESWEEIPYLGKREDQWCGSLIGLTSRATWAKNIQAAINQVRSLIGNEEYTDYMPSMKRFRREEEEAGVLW

[10] = target: T2, Polyadenylate-binding protein 1; assay: PABP1 MLLE–PAM2 binding inhibitor potency, dose response, biochemical, fluorescence polarization, FITC-PAM2 peptide (AID 602259); assay type: functional; settings: read-out: IC50_Mean
[11] = cytotoxicity toward NIH3T3 fibroblasts, dose response, counter-screen, cell-based, ATP luminescence, mouse fibroblasts (AID 2010); assay type: functional;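 also: cells exposed to compound for about 90 hours before reading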
cells [12] = assay type: functional, cell-based
[13] = C. albicans growth with fluconazole, confirmation, fluorescence, retest (AID 2467); assay type: functional, cell-based
cells [14] = assay type: functional, cell-based; remark: listed apart in the source
[15] = NIH-3T3 fibroblast cytotoxicity, dose response, cytotoxicity control, cell-based, fluorescence, Alamar Blue, secondary assay (AID 2327); assay type: functional;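 also: NIH-3T3 mouse fibroblasts cultured with fluconazole at 8 µg/mL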
[16] = inhibitors of intracellular T. cruzi replication, confirmation, NIH3T3 host cells, beta-gal luminescence (AID 2044); assay type: functional, cell-based;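 also: intracellular parasites grown in NIH/3T3 mouse fibroblasts as host cells; luminescent beta-galactosidase reporter signal from transgenic T. cruzi replicating inside host cells; inhibitors lower the luminescence signal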

Sequence of Nonstructural protein 1 (Q194T2 whole entry): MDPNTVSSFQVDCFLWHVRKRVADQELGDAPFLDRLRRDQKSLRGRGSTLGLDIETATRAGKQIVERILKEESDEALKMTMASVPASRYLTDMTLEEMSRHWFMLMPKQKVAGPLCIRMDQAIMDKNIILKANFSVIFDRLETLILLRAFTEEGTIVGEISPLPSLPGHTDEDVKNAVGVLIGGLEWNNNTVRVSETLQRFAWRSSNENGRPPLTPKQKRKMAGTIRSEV

Question: With `Cc1cc2ccccn2c1C(=O)c1cc([N+](=O)[O-])cc([N+](=O)[O-])c1` as the molecule, how does the IC50 (Nonstructural protein 1) read?
Answer: 40.7 µM (active)

Question: For `Cc1nc(Cl)sc1C(=O)Nc1cc(F)cc(F)c1`, which CC50 (Vero) is on record?
Answer: > 25 µM (active)

Question: For `COc1ccc(C(=O)Cn2c(C(C)=O)nc3ccccc32)cc1`, which CC50 (Vero) is on record?
Answer: 11.5 µM (active)

Question: Which EC50 (H4) does the source give for `O=C(/C=C/c1ccccc1Cl)c1ccc[nH]1` here?
Answer: 38.9 µM (active)

Question: And the EC50 [1]?
Answer: 44.6 µM (active)

Question: And the EC50 [2]?
Answer: 24.3 µM (active)

Question: Which AC50 [3] does the source give for `COc1ccccc1N1CCN(S(=O)(=O)c2cccc(F)c2)CC1` here?
Answer: 28.8 µM (active)

Question: With `C=C(C)c1cccc(C(C)(C)NC(=O)Nc2ccc(Cl)cn2)c1` as the molecule, how does the AC50 [4] read?
Answer: 12.8 µM (active)

Question: And the AC50 [5]?
Answer: 50.7 µM (active)

Question: And the AC50 [6]?
Answer: 16.5 µM (active)

Question: And the AC50 [7]?
Answer: 0.604 µM (active)

Question: For `COc1ccc(NC(=O)C[S+]([O-])CC(=O)Nc2cc(Cl)ccc2OC)cc1` (centres undefined), which IC50 [8] is on record?
Answer: > 20 µM (inactive)

Question: With `O=C1c2ccccc2C(=O)c2c1cccc2N1CCN(Cc2ccccc2)CC1` as the molecule, how does the IC50 (Nonstructural protein 1) read?
Answer: 7.08 µM (active)

Question: Which IC50 [8] does the source give for `NC1=NC[C@H](Cc2ccc(O)cc2)N1CCc1cc(C(F)(F)F)cc(C(F)(F)F)c1` here?
Answer: > 20 µM (inactive)

Question: For `Oc1cccc2c(-c3nn[nH]n3)ccnc12`, which IC50 (Nonstructural protein 1) is on record?
Answer: 7.24 µM (active)

Question: Which IC50 [9] does the source give for `O=C(CSc1nc(O)c(Cc2ccccc2)c(O)n1)Nc1nnc(SCc2ccccc2)s1` here?
Answer: > 66 µM (inactive)

Question: What about the IC50 (Genome polyprotein) of the same molecule?
Answer: 43.3 µM (active)

Question: And the IC50 [10]?
Answer: > 66 µM (inactive)

Question: With `Cc1ccc(OCCCCNC(C)c2ccccc2)c(C)c1` (centres undefined) as the molecule, how does the AC50 [4] read?
Answer: 5.36 µM (active)

Question: What about the AC50 [5] of the same molecule?
Answer: 3.69 µM (active)

Question: And the AC50 [6]?
Answer: 2.94 µM (active)

Question: And the AC50 [7]?
Answer: 5.29 µM (active)

Question: Which results are given for `Oc1ccc(CN2CCN(Cc3ccccc3)CC2)c2cccnc12`?
Answer: EC50 [11]: > 60 µM (not active); IC50 (Nonstructural protein 1): 11.2 µM (active); EC50 (cells [12]): > 350 µM (not active); IC50 [8]: > 20 µM (inactive); EC50 [13]: > 38 µM (not active); EC50 (cells [14]): > 350 µM (not active); EC50 [15]: > 160 µM (inconclusive); EC50 [16]: 2.03 µM (active)

Question: With `CCOC(=O)N1CCN(C(=O)CCN2C(=O)/C(=C\c3ccccc3OC)SC2=S)CC1` as the molecule, how does the CC50 (Vero) read?
Answer: > 25 µM (active)

Question: With `N#CC1=C2Sc3ccccc3N2CCCC1=O` as the molecule, how does the EC50 (H4) read?
Answer: 19.7 µM (active)

Question: And the EC50 [1]?
Answer: 0.318 µM (active)

Question: And the EC50 [2]?
Answer: 59 µM (active)
